# Where two headings read alike, the source gives them in different places.
# How the values were obtained:
# [1] = log P by HPLC on reversed-phase C18 columns (OECD Guideline 117); assay type: physicochemical; conditions: for chromatographic logP: reversed-phase C18 HPLC column
# [2] = test system: green peach aphid (Myzus persicae); experiment: Myzus persicae spray test on Chinese cabbage leaf discs; assay type: in vivo; conditions: application rate 500 g/ha, after 6 days
# From the text: Discs of Chinese cabbage leaves (Brassica pekinensis) infested by all stages of the green peach aphid (Myzus persicae) are sprayed with an active ingredient formulation of the desired concentration.
# [3] = pH 2.7, HPLC RP C18, acidic range pH 2.7, 0.1% aqueous formic acid/acetonitrile, read-out: logP[a]
# [4] = pH 7.8, HPLC RP C18, neutral range pH 7.8, 0.001 molar aqueous ammonium hydrogencarbonate/acetonitrile, read-out: logP[b]
# [5] = HPLC RP C18, acidic range pH 2.7, 0.1% aqueous formic acid/acetonitrile
# [6] = HPLC RP C18, neutral range pH 7.8, 0.001 molar aqueous ammonium hydrogencarbonate/acetonitrile
Structure (SMILES),"chromatographic logP [1, 3]","chromatographic logP [1, 4]",efficacy (aphids killed) [2],"logP[a] [1, 5]",further results
"CCOC(=O)c1cn(-c2ccnnc2)nc1N [IIIb-3, ethyl 3-amino-1-pyridazin-4-yl-pyrazole-4-carboxylate]",0.9,0.94,,,
"CCOC(=O)c1cnn(-c2cncnc2)c1N [IIIa-2, Ethyl 5-amino-1-(pyrimidin-5-yl)-1H-pyrazole-4-carboxylate]",1.16,1.12,,,
"CCOC(=O)c1cn(-c2cncnc2)nc1N [IIIb-2, ethyl 3-amino-1-(pyrimidin-5-yl)-1H-pyrazole-4-carboxylate]",1.12,1.08,,,
Cn1cnc2c(cnn2-c2cccnc2)c1=O [compound 7],,,,,logP[a] ([1]; pH 2.7): 0.58; logP[b] ([1]; pH 7.8): 0.82
Cc1ccc(-n2cnc3nn(-c4cccnc4)cc3c2=O)cc1 [compound 39],,,100%,1.73,"logP[b] [1, 6]: 1.73"
O=c1c2cn(-c3cccnc3)nc2ncn1CC(F)(F)F [compound 12],,,100%,1.27,
CN(C)C(=O)Cn1cnc2nn(-c3cccnc3)cc2c1=O [compound 22],,,90%,0.47,"logP[b] [1, 6]: 0.51"
CC(F)(F)Cn1cnc2nn(-c3cccnc3)cc2c1=O [compound 24],,,100%,1.19,"logP[b] [1, 6]: 1.21"
CC(C)n1cnc2c(cnn2-c2cccnc2)c1=O [compound 1],,,,,logP[a] ([1]; pH 2.7): 1.31
"CCNC(=O)c1cnn(-c2cccnc2)c1N [IIa-1-1, 5-Amino-N-ethyl-1-(pyridin-3-yl)-1H-pyrazole-4-carboxamide]",0.5,0.56,,,
CC(C)(C)Cn1cnc2nn(-c3cccnc3)cc2c1=O [compound 34],,,100%,1.70,"logP[b] [1, 6]: 1.71"
O=c1c2cn(-c3ccccc3)nc2ncn1Cc1ncccn1 [compound 11],,,100%,0.63,
"CCOC(=O)c1cnn(-c2cccnc2)c1N [IIIa-1, Ethyl 5-amino-1-(pyridin-3-yl)-1H-pyrazole-4-carboxylate]",,,,1.10,
CC(c1ccccn1)n1cnc2nn(-c3cccnc3)cc2c1=O (stereo not drawn) [compound 21],,,90%,1.13,"logP[b] [1, 6]: 1.32"
"CCOC(=O)c1cnn(-c2cccnc2)c1N [(IIIa-1). HCOOH, ethyl 5-amino-1-(pyridin-3-yl)-1H-pyrazole-4-carboxylate]",1.18,1.27,,,
O=c1c2cnn(-c3cccnc3)c2ncn1-c1ccc(Cl)cc1 [compound 4],,,90%,2.04,
"CCn1cnc2nn(-c3cccnc3)cc2c1=O [compound 16, 5-Ethyl-2-(pyridin-3-yl)-2,5-dihydro-4H-pyrazolo[3,4-d]pyrimidin-4-one]",0.7,0.84,100%,,
O=c1c2cnn(-c3cccnc3)c2ncn1-c1ccccc1 [compound 2],,,90%,1.57,
O=c1c2cn(-c3cccnc3)nc2ncn1CC1CCCO1 (stereo not drawn) [compound 17],,,100%,1.07,"logP[b] [1, 6]: 1.12"
CC(C)n1cnc2nn(-c3cncnc3)cc2c1=O [compound 37],,,100%,,logP[a] ([1]; pH 2.7): 0.93; logP[b] ([1]; pH 7.8): 0.92
"CCOC(=O)c1cnn(-c2ccnnc2)c1N [IIIa-3, Ethyl 5-amino-1-pyridazin-4-yl-pyrazole-4-carboxylate]",1.12,1.12,,,
O=c1c2cn(-c3cccnc3)nc2ncn1CC1CC1 [compound 33],,,100%,1.23,"logP[b] [1, 6]: 1.27"
Cn1cnc2nn(-c3cccnc3)cc2c1=O [compound 18],,,100%,0.45,"logP[b] [1, 6]: 0.52"
"CCNC(=O)c1cn(-c2cccnc2)nc1N [IIb-1-1, 3-Amino-N-ethyl-1-(pyridin-3-yl)-1H-pyrazole-4-carboxamide]",0.45,0.77,,,
CCOC(=O)Cn1cnc2nn(-c3cccnc3)cc2c1=O [compound 19],,,100%,0.98,"logP[b] [1, 6]: 1.09"
O=c1c2cnn(-c3cccnc3)c2ncn1Cc1ncccn1 [compound 5],,,90%,,logP[a] ([1]; pH 2.7): 0.80; logP[b] ([1]; pH 7.8): 0.91
CCn1cnc2nn(-c3cccnc3)cc2c1=O [compound 9],,,,0.80,
"CCOC(=O)c1cn(-c2cccnc2)nc1N [IIIb-1, Ethyl 3-amino-1-(pyridin-3-yl)-1H-pyrazole-4-carboxylate]",1.12,1.32,,,

# Continued, in another order:
"chromatographic logP [1, 3]","chromatographic logP [1, 4]",Structure (SMILES),efficacy (aphids killed) [2],"logP[a] [1, 5]",further results
1.72,1.7,"CC(C)n1nnc2nn(-c3cccnc3)cc2c1=O [compound 36, 3-Isopropyl-6-(3-pyridyl)pyrazolo[3,4-d]triazin-4-one]",90%,,
0.98,1.15,"CCn1cnc2c(cnn2-c2cccnc2)c1=O [compound 6, 5-Ethyl-1-(pyridin-3-yl)-1,5-dihydro-4H-pyrazolo[3,4-d]pyrimidin-4-one]",,,
1.06,1.12,"CC(C)n1cnc2nn(-c3cccnc3)cc2c1=O [compound 15, 5-Isopropyl-2-(pyridin-3-yl)-2,5-dihydro-4H-pyrazolo[3,4-d]pyrimidin-4-one]",100%,,
0.55,0.55,"Cn1cnc2c(cnn2-c2cncnc2)c1=O [compound 8, 5-Methyl-1-(pyrimidin-5-yl)-1,5-dihydro-4H-pyrazolo[3,4-d]pyrimidin-4-one]",,,
0.82,1.05,"CC(C)NC(=O)c1cn(-c2cccnc2)nc1N [IIb-1-2, 3-Amino-N-isopropyl-1-(pyridin-3-yl)-1H-pyrazole-4-carboxamide]",,,
0.85,0.85,"CC(C)n1cnc2nn(-c3ccnnc3)cc2c1=O [compound 38, 5-Isopropyl-2-pyridazin-4-yl-pyrazolo[3,4-d]pyrimidin-4-one]",90%,,
0.18,-0.01,"CNC(=O)c1cnn(-c2cncnc2)c1N [IIb-2-1, 5-Amino-N-methyl-1-(pyrimidin-5-yl)-1H-pyrazole-4-carboxamide]",,,
2.07,2.06,"CCn1c(C(F)(F)F)nc2nn(-c3cccnc3)cc2c1=O [compound 32, 5-Ethyl-2-(pyridin-3-yl)-6-(trifluoromethyl)-2,5-dihydro-4H-pyrazolo[3,4-d]pyrimidin-4-one]",,,
0.74,0.74,"CC(C)NC(=O)c1cn(-c2ccnnc2)nc1N [IIb-3-1, 3-Amino-N-isopropyl-1-pyridazin-4-yl-pyrazole-4-carboxamide]",,,
2.54,2.48,"CCOC(=O)C(C#N)=CN(N=Cc1ccccc1)c1cccnc1 [VIII-1, Ethyl 3-[2-benzylidene-1-(pyridin-3-yl)hydrazino]-2-cyanoacrylate]",,,
0.86,2.22,"C(=NNc1cccnc1)c1ccccc1 [VII-1, Benzaldehyde pyridin-3-yl hydrazone]",,,

# — patent US9688681B2, “Heterocyclic compounds as pest control agents” (BAYER CROPSCIENCE AKTIENGESELLSCHAFT, priority 2013, dated 2017)
